Test results from patent publication US5792457A, “Antibody recognizing endothelial cell ligand for leukocyte CR3” (priority 1995, dated 1998).

What was measured:
[1] = tested on: recognition of C3bi by antibody 12.1F9; assay: Inhibition of binding of 12.1F9 to E^C3bi by peptides; set-up: species or system human; conditions: peptides 50 μg/ml; for Adherence index: normalized to control value of 100, 6 experiments
Description: Values are normalized to a control value of 100; data are expressed as the mean±SD of 6 experiments with duplicate wells.

CSF leukocytosis = assay: Rat meningitis model (LOS): CSF leukocytosis; type: in vivo, female Wistar rats; conditions: 4 hours after LOS
Description: The experiments were performed according to established protocols (Wispelway et al., 1988, J. Clin. Invest., 82: 1339-1346). Purified Haemophilus influenzae type b strain DL42 lipooligosaccharide (LOS) was prepared for inoculation by sonication for 30 minutes, dilution to the desired concentration (20 ng/50 μl) in normal saline or PBS, and sonication for an additional 15 to 30 minutes just prior to use.
(§1) Briefly, anesthetized female Wistar rats were placed under a micromanipulator and inoculated intracisternally with a 25 gauge needle. After removal of 50 μl of CSF (without visible blood contamination), rats were inoculated intracisternally with 50 μl (20 ng) of LOS using a 1 ml syringe with a 25 gauge needle. Ten to fifteen minutes after inoculation with LOS, the rats were treated by intravenous administration of the test substance: a solution of an FHA peptide in PBS, a solution of a control peptide in PBS, or an equal volume of PBS alone.
(§2) Three hours after LOS inoculation, 5 μCi of ^125 I-radiolabelled albumin in 50 μl normal saline was administered intravenously. One hour later, CSF was collected via intracisternal puncture and blood samples were collected via intracardiac puncture. CSF leukocytosis was determined by manually counting white blood cells using a hemacytometer, and blood-brain barrier permeability was determined as the percent of radioactivity in whole blood that was present in the CSF. Blood samples were obtained immediately prior to inoculation, immediately prior to treatment, and at 4 hours post-inoculation for determination of peripheral white blood cell concentrations.

[2] = tested on: transendothelial migration of human neutrophils through HUVEC monolayers; assay: Transendothelial migration (TEM) of neutrophils; type: cell-based; conditions: peptides 0.01 mM, native FHA 1 μM; at least 3 experiments with 6 wells/peptide
Description: FIG. 26 is a graphical representation of the inhibition of transendothelial migration of neutrophils by FHA peptide Ca, native FHA and mAb IB4 in a concentration dependent fashion. FHA peptide Ca (.largecircle.); intact FHA (.quadrature.); and mAb IB4 (.tangle-solidup.). Values represent mean±standard deviation of at least 3 experiments with 6 wells/peptide.
Transendothelial migration of neutrophils was studied based on a method described by Muller et al. (1992), J. Exp. Med. 176: 819-828. Briefly, human neutrophils suspended in ice-cold Hanks balanced salt solution (HBSS) containing Ca^++ and Mg^++ (Sigma) were fluoresceinated by adding 3.3 μl/ml 5-(and 6-)carboxyfluorescein diacetate, succinimidyl ester (CFSE, Molecular Probes Inc., Oreg.). After incubation for 30 mins. on ice, neutrophils were washed twice in cold HBSS with Ca^++ and Mg^++ and resuspended in cold Medium 199 (M199, Sigma) to a final concentration of 10^6 /ml. Human umbilical vein endothelial cells were subcultured at confluence into 96-well tissue culture plates (Becton Dickinson Labware, Lincoln Park, N.J.) that were coated with hydrated collagen gel (Vitrogen; Collagen Corporation, Palo Alto, Calif.) and fibronectin. Endothelial cells were stimulated with 10 ng/ml TNF-alpha for 4 hours and washed three times with warm M199. Neutrophils (10^6 /ml) were preincubated with 0.01 mM of peptides or with 1 μM of native FHA in M199 for 5 mins. on ice before they were added in 100 μl aliquots to the endothelial cells. For positive control, neutrophils were pre-incubated with 25 μg/ml anti-CD18 mAb IB4. For negative control, neutrophils were treated with 25 μg/ml mAb W6/32 against HLA class I antigen (Dako, Carpinteria, Calif.). The cells were incubated for 1 hour at 37° C., 5% CO2. To terminate transmigration, the supernatant fluid was aspirated and the wells were filled with warm 1 mM EGTA (Sigma) in HBSS without Ca and Mg. The plates were covered with plate sealers (Dynatech, Alexandria, Va.) and centrifuged in an inverted position at 250 g for 3 mins. at room temperature. To remove residual non-transmigrated neutrophils from the endothelial cells, monolayers were washed twice with 200 μl of warm Hanks solution without Ca and Mg. Fluorescence was quantitated using a fluorescence counter (Millipore Cytofluorm™ 2300). The percentage of transmigrated neutrophils was determined by comparing the amount of fluorescence of test wells with that measured in collagen- and fibronectin-coated wells without endothelial cells. […] Percent inhibition of transendothelial migration of neutrophils was calculated by comparing the number of transmigrated cells in wells containing neutrophils treated with peptide to neutrophils treated with M199 alone and arbitrarily set at 100% transendothelial migration (TEM).
(§3) The procedures for determining the neutrophil adherence to cultured endothelial cells and the transendothelial migration of neutrophils were identical with those of Example 9. Control values were the same as those shown in Example 9.

[3] = tested on: Factor Xa procoagulant activity on THP-1 cells; assay: Generation of Factor Xa by monocytes (THP-1), clotting assay; type: cell-based; conditions: for Factor Xa / Clotting time: peptides 0.5 mM; for Clotting time: mean ± SD of at least 3 experiments; for reduction of Factor Xa production: 0.5 mM, vs scrambled FHA II, 20 min
Description: Factor Xa generation was determined by a modification of the method of Miletich et al. (1978), J. Biol. Chem. 253: 6908-6916. THP-1 cells (ATCC; […]) resuspended in RPMI 1640 (Bio Whittaker, Walkersville,Md.) were incubated with 100 μM ADP (Sigma), 2.5 mM CaC2, 1 or 5 μg/ml Factor X (Hematologic Technologies Inc.) and 0.5 mM peptides at room temperature. After 20 minutes, 100 μl of the reaction mixture was transferred to 37° C. and supplemented with 100 μl of bovine factor VII- and Factor X-deficient plasma (Sigma). Coagulation was initiated by adding 100 μl of 25 mM CaC2 and the clotting time was determined. Factor Xa procoagulant activity (ng/ml) was calculated by means of a standard curve constructed by serial concentrations of Factor Xa (Hematologic Technologies Inc.) from 50 to 250 ng/ml.

Factor X binding to CR3 = conditions: cited from earlier work
[4] = tested on: blood-brain barrier permeability; assay: Rat meningitis model (LOS): blood-brain barrier permeability (125I-albumin); type: in vivo, female Wistar rats; conditions: 100 nmol; percent of radioactivity in whole blood present in CSF
Description: as §1, §2

[5] = tested on: neutrophil adherence to human umbilical vein endothelial cells (HUVEC); assay: Adherence of neutrophils to cultured (TNF alpha stimulated) endothelial cells; type: cell-based
Description: FIG. 17 is a bar graph representation of the inhibition of neutrophil adherence to activated endothelial cells by FHA, Factor X- and FHA- derived peptides. The concentration of inhibiting substances was: peptides 0.5 mM, native FHA 0.3 μM. Values represent the mean±standard deviation of 4 experiments with 5 wells/peptide.
FIG. 18 is a graphical representation of the FHA, FHA- or Factor X-peptide concentration effects on the inhibition of neutrophil adherence to activated endothelial cells. FHA peptide II monomer (Square) and trimer (Diamond), Factor X peptide II (Circle) at 10^-9 μM to 0.5 mM; native FHA at 10^-6 to 3×10^2 μM (triangle). Values represent the mean of 3 experiments with 5 wells/peptide (standard deviations <15%).
FIG. 25 is a graphical representation of the inhibition of neutrophil adherence to activated endothelial cells by FHA and FHA peptides. FIG. 25A: Peptide concentrations were 0.5 mM (FHA 0.2 μM). Values represent mean±standard deviation of four experiments with 5 wells/peptide; FIG. 25B represents the mean±standard deviation of triplicate experiments with 5 wells/peptide. Native FHA (.quadrature.); FHA peptide Ca (.largecircle.).
Human umbilical vein endothelial cells (HUVEC, first passage, Clonetics, San Diego, Calif.) were subcultured at confluence into Terasaki tissue culture wells. After 24 hours, confluent monolayers were used for adherence assays. Monolayers were stimulated with 10 ng/ml TNF alpha (Boehringer Mannheim, Indianapolis, Ind.) at 37° C. for four hours. 30 μl of human neutrophils (10^6 /ml) were labeled with fluorescein by the method of Lo et al. (1991), J. ExP. Med. 173 1493-1500, and preincubated for 15 minutes at 37° C. with 20 μl of peptides (0.5 mM in HAP) or HAP (phosphate buffered saline containing 0.5 mg/ml human serum albumin, 3 mM glucose, and 0.3 U/ml aprotinin) as a control buffer. For some experiments, endothelial cells were pretreated from 10 minutes with Factor X or antibodies against Factor X receptor (EPR-1; Altieri et al. (1990), J. Immunol. 145, 246-253) 12H1 and 9D4 (obtained from Dr. D. Altieri, Scripps Research Institute, LaJolla, Calif.) and then washed. Neutrophils were allowed to adhere to the monolayer for 15 mins. at 37° C. and unbound cells were removed by submersion of the plate in PBS buffer. The number of adherent neutrophils was counted in a 40× microscope field and expressed as a percentage of adherence in control wells with neutrophils treated with HAP buffer alone. The mAb IB4 against CD18 (50 μg/ml; Merck Inc., Rahway, N.J.) served as a positive control.
The ability of FHA peptides and anti-CD18 or anti-Factor X receptor antibodies to interact cooperatively to inhibit neutrophil adherence to endothelial cells was assessed by measuring neutrophil adherence to endothelial cells in the presence of antibody as well as antibody plus peptide. […] Anti-Factor X receptor mAb 12H1 (10 μl of ascites) or 9D4 (10 μg/ml) were added to the endothelial cell monolayers 10 min before the assay. The peptides were added at 5 μg/ml. The results are shown in Table 8 where the numerical values are in % of control binding.
as §3

B. pertussis = conditions: in vivo; cited from earlier work

| Molecule | Adherence index [1] | % Inhibition of TEM [2] [%] | Factor Xa [3] [ng/mL] | Clotting time [3] [s] | also measured |
| --- | --- | --- | --- | --- | --- |
| YTVSADAIALA [FHA 1408-1418] | 21 ± 11 |  |  |  | block of binding of 12.1F9 to E^C3bi [1]: up to 60% |
| Ac-VEEDTKG-NH2 [scrambled ac/am FHA II, VEEDTKG] |  |  |  |  | Leukocytosis (CSF) (CSF leukocytosis; 600 nmol i.v.): 14,287 ± 10,199 cells/ml; Leukocytosis (CSF) (CSF leukocytosis; 600 nmol i.v., listed as control peptide (scrambled ac/am FHA II)): approximately 14,000 cells/ml |
| YTVAIAGYALA [C3-pep 1187-1197] | 30 ± 16 |  |  |  | block of binding of 12.1F9 to E^C3bi [1]: up to 60% |
| IDRSMKTRG [Factor X III] |  | 5 ± 7 | 107.5 | 26.5 ± 2.4 | effect on Factor Xa generation (in words) [3]: substantial reduction that did not reach statistical significance; inhibition of binding of CR3 bearing cells to Factor X (in words) (Factor X binding to CR3): competitively inhibit the binding of CR3 bearing tissue culture cells to purified Factor X |
| VTVGRGDPAQG [FHA RGD] | 85 ± 9 |  |  |  |  |
| IDVPQHGGAMRDLGIAQGKD [scrambled FHA Ca] |  |  |  |  | Leukocytosis (CSF) (CSF leukocytosis; 100 nmol i.v.): 20,700 ± 7,400 cells/ml; Leukocytosis (CSF) (CSF leukocytosis; 100 nmol i.v., listed as control peptide (scrambled FHA Ca)): approximately 20,000 cells/ml; BBB permeability [4]: 6.74 ± 3.48% |
| FHA peptide A: synthetic peptide, residues 1055-1099, SEQ ID NO: 20 (IGALKAGAVEAASPRRARRALRQDFFTPGSVVVRAQGNVTVGRGD; UniProt P12255 1055-1099, looked up, fragment) |  |  |  |  | inhibition of neutrophil adherence ([5]; 45/50-mer peptides, FHA peptide C 1 mg/ml, 0.2 mM): < 15% |
| OC[C@H]1O[C@@H](O[C@H]2[C@H](O)[C@@H](O)C(O)O[C@@H]2CO)[C@H](O)[C@@H](O)[C@H]1O (stereo partly drawn) [Lactose] |  |  |  |  | colonization of rabbit lung (in words) (B. pertussis): decrease colonization of rabbit lung |
| TRYRGDQDATMS [C3/12, reference compound] | 127 ± 27 |  |  |  |  |
| CC(=O)N[C@@H](CC(C)C)C(=O)N[C@@H](CC(C)C)C(=O)N[C@H](C=O)CCCNC(=N)N [Leupeptin, reference compound] |  |  | < 10.0 |  |  |
| GRTRG (UniProt P12255 32-36, looked up, fragment) [FHA III] |  | 5 ± 6 | 43.4 | 36.2 ± 2.7 | inhibition of neutrophil adherence (in words) ([5]; peptides 0.5 mM (Example 9)): less effective than the corresponding Factor X derived peptide; reduction of Factor Xa production [3]: 74% |
| GLYQAKRFKVG [Factor X I] |  | 10 ± 6 | 37.8 | 37.0 ± 4.0 | effect on Factor Xa generation (in words) [3]: substantial reduction that did not reach statistical significance; inhibition of binding of CR3 bearing cells to Factor X (in words) (Factor X binding to CR3): competitively inhibit the binding of CR3 bearing tissue culture cells to purified Factor X |
| GLIQGRSVKVD [FHA Ib] |  | 7 ± 10 | 31.3 | 38.0 ± 7.6 | reduction of Factor Xa production [3]: 81% |
